The text below walks through data of paper PMC3237899 (2011).

The target in test [1] is Jak2-V617F (Homo sapiens, UniProt O60674, V617F). The test is described as follows: in vitro kinase assay with recombinant protein, autophosphorylation. Format: biochemical.
In test [2] the target is Jak2 wild type (Homo sapiens, UniProt O60674). The description is as above. Format: biochemical.

As a reminder, the IC50 is the concentration that gives 50% inhibition.

Chain of Jak2-V617F (O60674 545-1132 V617F limits assumed): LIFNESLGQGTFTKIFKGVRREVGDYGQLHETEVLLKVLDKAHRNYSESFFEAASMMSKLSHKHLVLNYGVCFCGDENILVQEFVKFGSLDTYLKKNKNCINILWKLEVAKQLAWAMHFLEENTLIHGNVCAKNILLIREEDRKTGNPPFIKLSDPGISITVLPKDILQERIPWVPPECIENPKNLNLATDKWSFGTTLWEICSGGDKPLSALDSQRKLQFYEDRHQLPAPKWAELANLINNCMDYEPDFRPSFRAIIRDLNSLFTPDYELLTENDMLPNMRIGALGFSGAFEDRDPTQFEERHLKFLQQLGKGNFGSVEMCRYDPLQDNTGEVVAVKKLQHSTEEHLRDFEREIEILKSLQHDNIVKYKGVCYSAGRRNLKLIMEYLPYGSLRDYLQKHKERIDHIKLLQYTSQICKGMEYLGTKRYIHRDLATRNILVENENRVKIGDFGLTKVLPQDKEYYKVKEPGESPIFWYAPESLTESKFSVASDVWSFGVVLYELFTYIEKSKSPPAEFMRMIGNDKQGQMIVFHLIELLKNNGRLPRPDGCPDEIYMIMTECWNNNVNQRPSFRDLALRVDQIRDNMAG
Chain of Jak2 wild type (O60674 whole entry): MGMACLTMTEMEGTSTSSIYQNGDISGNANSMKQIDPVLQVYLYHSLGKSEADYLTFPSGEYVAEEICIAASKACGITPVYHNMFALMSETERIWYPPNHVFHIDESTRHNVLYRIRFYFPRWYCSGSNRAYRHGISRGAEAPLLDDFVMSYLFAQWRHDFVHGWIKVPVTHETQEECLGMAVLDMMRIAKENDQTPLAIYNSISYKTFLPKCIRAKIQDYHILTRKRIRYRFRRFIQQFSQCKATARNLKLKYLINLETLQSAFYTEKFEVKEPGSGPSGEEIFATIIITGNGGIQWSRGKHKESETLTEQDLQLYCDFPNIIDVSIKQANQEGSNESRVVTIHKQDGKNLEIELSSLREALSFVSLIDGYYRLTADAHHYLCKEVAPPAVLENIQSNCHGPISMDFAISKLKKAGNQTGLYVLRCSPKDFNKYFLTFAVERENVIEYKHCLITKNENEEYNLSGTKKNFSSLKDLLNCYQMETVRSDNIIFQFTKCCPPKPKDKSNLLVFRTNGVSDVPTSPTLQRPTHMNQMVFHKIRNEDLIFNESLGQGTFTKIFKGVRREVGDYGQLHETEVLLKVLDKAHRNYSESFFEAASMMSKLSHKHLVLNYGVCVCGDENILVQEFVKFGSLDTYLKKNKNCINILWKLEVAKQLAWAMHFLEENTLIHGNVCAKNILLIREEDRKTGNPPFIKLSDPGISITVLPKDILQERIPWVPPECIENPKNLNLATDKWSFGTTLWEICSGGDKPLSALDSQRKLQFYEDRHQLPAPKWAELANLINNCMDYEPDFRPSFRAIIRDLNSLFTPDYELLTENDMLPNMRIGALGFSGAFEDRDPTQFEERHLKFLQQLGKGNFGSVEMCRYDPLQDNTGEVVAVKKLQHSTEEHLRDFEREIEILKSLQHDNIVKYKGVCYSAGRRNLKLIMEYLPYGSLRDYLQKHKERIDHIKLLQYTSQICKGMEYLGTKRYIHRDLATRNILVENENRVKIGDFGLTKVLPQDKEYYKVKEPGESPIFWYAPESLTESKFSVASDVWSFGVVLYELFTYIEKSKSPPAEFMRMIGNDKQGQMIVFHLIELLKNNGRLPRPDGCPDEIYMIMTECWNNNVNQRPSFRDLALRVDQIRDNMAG

For the compound `CN(C)c1ccc(C(O)c2cc3ccccc3s2)cc1` (centres unmarked) [A46, 1-benzothiophen-2-yl-(4-dimethylaminophenyl)methanol], the figures for the IC50 in test [1] and in test [2] were around 100 nM and around 1000 nM, respectively.
